Data on 1 sequence can be found in patent US5559209A, “Regulator regions of G proteins” (The General Hospital Corporation, priority 1993, dated 1996).

One assay deals with T1, Gi3 (Bos taurus, UniProt Q3ZCA7).
T1 construct: was purified from bovine spleen and used in combination with 1.5-fold concentrated Gβγ; from tissue; host or cells: bovine spleen (Gi3 α); bovine brain (Gβγ)
The assay is described as follows: GTPγS binding, peptide 14-induced Gi3 activation. Format: biochemical, bovine. The settings on record: 10 nM Gi3, 30 μM peptide 14, 4 min. On the procedure:
(§1) Materials and Methods The in vitro assays described below utilize the couplone portion of each of a number of G-coupled receptors, instead of an intact receptor molecule, as a means for activating the corresponding anticouplone or intact G-protein. […]
(§2) GTPγS binding Assay--GTPγS binding to G proteins was assayed at 37° C. in 20 mM Hepes/NaOH buffer (pH 7.4) containing 130 μM MgCl2, 110 μM EDTA and 60 nM [^35 S]GTPγS, as described previously (Okamoto et al., 1990). […] The total amount of G protein was measured as maximal GTPγS binding at room temperature, as described (Okamoto et al., Cell 67:723-730, 1991a). […] Thus, the apparent first-order rate constant for GTPγS binding (kapp), which is equal to the slope of the tangent to the GTPγS binding curve at time 0 and represents the actual GTPγS binding rate, was calculated from this equation.
Peptide 14 is capable of activating Gi1 and Gi3 as well as Gi2 (Okamoto et al., 1990). The effect of ACGi2 on peptide 14-induced activation of these Gi proteins was examined as follows: 10 nM Gi1 (.quadrature.) or Gi3 (.diamond-solid.) was incubated with 30 μM peptide 14 in the presence of various concentrations of ACGi2 for 4 min, and GTPβS binding was measured. […]

A further assay deals with Go (Homo sapiens, UniProt P09471). Briefly: GTPγS binding, MIII-induced Go activation. Format: biochemical. The settings on record: 10 nM Go, 1 μM MIII, 2 min. On the procedure: GTPγS binding Assay--GTPγS binding to G proteins was assayed at 37° C. in 20 mM Hepes/NaOH buffer (pH 7.4) containing 130 μM MgCl2, 110 μM EDTA and 60 nM [^35 S]GTPγS, as described previously (Okamoto et al., 1990). GTPγS binding to polypeptides was negligible. The total amount of G protein was measured as maximal GTPγS binding at room temperature, as described (Okamoto et al., Cell 67:723-730, 1991a). [^35 S]GTPγS was purchased from DuPont-New England Nuclear. Binding of GTPγS to G proteins obeyed first-order kinetics according to the equation ln[(BT-B)/BT]=-kapp t, where B is the binding at time t and BT is the total binding observable at an infinite time. Thus, the apparent first-order rate constant for GTPγS binding (kapp), which is equal to the slope of the tangent to the GTPγS binding curve at time 0 and represents the actual GTPγS binding rate, was calculated from this equation.
Go, sequence (P09471 2-354 limits assumed): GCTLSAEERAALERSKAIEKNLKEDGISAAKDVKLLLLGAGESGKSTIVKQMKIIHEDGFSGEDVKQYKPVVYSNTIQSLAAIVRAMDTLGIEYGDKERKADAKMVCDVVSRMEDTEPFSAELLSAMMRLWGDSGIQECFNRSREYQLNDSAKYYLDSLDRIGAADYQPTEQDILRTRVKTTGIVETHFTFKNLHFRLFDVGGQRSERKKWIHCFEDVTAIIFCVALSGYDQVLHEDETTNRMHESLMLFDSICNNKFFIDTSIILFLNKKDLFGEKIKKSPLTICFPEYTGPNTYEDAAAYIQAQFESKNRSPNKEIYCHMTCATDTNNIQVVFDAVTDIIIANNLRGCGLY
Go, sequence (P62873 2-340 partner limits assumed): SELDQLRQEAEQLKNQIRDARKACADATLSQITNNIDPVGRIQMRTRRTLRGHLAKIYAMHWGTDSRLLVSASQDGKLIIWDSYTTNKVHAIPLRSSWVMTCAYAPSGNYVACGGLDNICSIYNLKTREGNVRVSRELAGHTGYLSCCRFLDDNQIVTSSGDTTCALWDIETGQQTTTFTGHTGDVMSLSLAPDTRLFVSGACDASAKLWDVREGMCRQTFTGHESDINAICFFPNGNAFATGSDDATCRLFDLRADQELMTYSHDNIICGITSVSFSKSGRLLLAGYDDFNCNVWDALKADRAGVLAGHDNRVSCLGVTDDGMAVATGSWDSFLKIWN
Go, sequence (P59768 2-68 partner limits assumed): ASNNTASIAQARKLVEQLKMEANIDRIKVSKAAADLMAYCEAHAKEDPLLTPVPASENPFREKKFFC
The MIII peptide is a Gi /Go -activator region in the third intracellular loop of the G-coupled receptor termed M4 AChR (Okamoto et al., J. Biol. Chem. 267:8342-8346, 1992). This peptide has the sequence RNQVRKKRQMAARERKVTR (SEQ ID NO: 30). In the experiments illustrated in FIG. 1D, 10 nM Go (.quadrature.) or Gi2 (.diamond-solid.) was incubated with 1 μM MIII for 2 or 5 min, respectively, and GTPγS binding was measured in the same manner as in FIG. 1A. […]

For the next assay, the target named is T2, mAChR-Gi2 coupling (Bos taurus, UniProt A7MBH9).
T2 construct: trimeric Gi2 purified from bovine spleen to homogeneity; from tissue; host or cells: bovine spleen (Gi2); porcine brain (mAChR)
T2 sequence (A7MBH9 2-355 limits assumed): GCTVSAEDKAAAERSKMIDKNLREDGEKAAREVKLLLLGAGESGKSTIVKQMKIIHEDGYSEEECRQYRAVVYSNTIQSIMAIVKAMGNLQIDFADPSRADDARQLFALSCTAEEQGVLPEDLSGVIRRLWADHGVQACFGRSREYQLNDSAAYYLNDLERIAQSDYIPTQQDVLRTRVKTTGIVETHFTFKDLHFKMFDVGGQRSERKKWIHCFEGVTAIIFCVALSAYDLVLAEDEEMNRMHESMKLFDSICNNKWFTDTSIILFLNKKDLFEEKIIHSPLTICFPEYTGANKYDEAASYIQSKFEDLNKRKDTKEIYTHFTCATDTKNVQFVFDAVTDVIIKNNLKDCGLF
T2 sequence (P62871 2-340 partner limits assumed): as the sequence (P62873 2-340 partner limits assumed) above
T2 sequence (P63212 2-68 partner limits assumed): as the sequence (P59768 2-68 partner limits assumed) above
The assay is described as follows: GTPγS binding rate in mAChR-Gi2 reconstituted phospholipid vesicles. Format: biochemical, porcine mAChR, bovine Gi2. The note with it: 30 μM ACGi2, 10 mM acetylcholine; read-out: inhibition of acetylcholine-induced Gi2 activation. On the procedure: as §1
as §2, with “equation. […]” for “equation.”

Where no end group is shown, it is not given here.

T1 sequence (Q3ZCA7 2-354 limits assumed): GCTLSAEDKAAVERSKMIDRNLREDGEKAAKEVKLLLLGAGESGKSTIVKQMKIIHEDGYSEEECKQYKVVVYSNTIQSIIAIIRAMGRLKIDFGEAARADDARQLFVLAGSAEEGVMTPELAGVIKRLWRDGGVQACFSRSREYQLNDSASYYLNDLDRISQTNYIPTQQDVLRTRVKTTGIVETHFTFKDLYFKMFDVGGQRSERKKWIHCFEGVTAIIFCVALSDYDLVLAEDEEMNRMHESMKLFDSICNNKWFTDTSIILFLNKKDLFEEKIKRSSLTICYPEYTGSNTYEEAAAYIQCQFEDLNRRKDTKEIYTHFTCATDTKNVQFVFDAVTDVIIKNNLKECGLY
T1 sequence (P62871 2-340 partner limits assumed): as the sequence (P62873 2-340 partner limits assumed) above
T1 sequence (P63212 2-68 partner limits assumed): as the sequence (P59768 2-68 partner limits assumed) above

As for “DAVTDVIIKNNLKDC [ACGi2, DAVTDVIIKNNLKDC]”, the “maximal inhibition of peptide 14-induced Gi3 activation” value at Gi3 was “≈ 60%”. This sequence showed an IC50 at Go of approximately 30 µM. For the same sequence, the inhibition at 30 µM at mAChR-Gi2 coupling was approximately 75%.
